Key:
S. aureus (ATCC 12600) [1] = test: Minimal microbicidal concentration (MMC99) assay; format: cell-based, Staphylococcus aureus
Protocol: (§1) All the synthesised peptides were tested for their in vitro microbicidal activity against S. aureus (American Type Culture Collection (ATCC) 12600) and P. aeruginosa (ATCC 15442) using a minimal microbicidal concentration (MMC) assay as previously described (Haversen et al. [2010]). Bacteria were cultured in 3.7% brain heart infusion (BHI) broth (Difco, BD Diagnostics, Franklin Lakes, NJ) on a shaker at 250 rpm overnight at 37°C. The culture was diluted 1:10 in fresh 3.7% BHI and incubated for two additional hours to reach log-phase growth. The bacteria were pelleted by centrifugation at 900 × g and suspended in 0.037% BHI to a concentration of 10^7 CFU/mL, estimated by measuring optical density at 600 nm (OD600). To investigate the influence of physiological conditions on microbicidal effect of the peptides, four different assay media were used: 0.037% BHI, 0.037% BHI supplemented with 85 or 150 mM sodium chloride (NaCl), and 50% heat inactivated simulated wound fluid (h.i. SWF) composed of a 50:50 mixture of 0.1% peptone (Oxoid, Basingstoke, UK) in 150 mM NaCl and fetal bovine serum (FBS; PAA Laboratories GmbH, Pasching, Austria), diluted two times in ultra pure water. The peptides were serially diluted by twofold steps from 200 to 1.56 mg/L in the assay media used, and 100 μL of the peptide solutions were mixed with 5 μL bacterial suspensions in a 96 well plate (Nunc, Roskilde, Denmark) and incubated at 37°C for two hours. An aliquot of 5 μL from each well was aspirated and added as drops onto blood agar plates (Columbia agar; Oxoid, Basingstoke, UK) supplemented with 5% defibrinated horse blood (Swedish National Veterinary Institute (SVA), Uppsala, Sweden), and the plates were incubated overnight at 37°C. All samples were processed as duplicates. The minimal test compound concentration causing ≥99% reduction of bacteria was defined as the MMC99. The concentration of the bacterial suspension used in the assay was confirmed by viable count estimation on blood agar plates (Oxoid).
(§2) CEN1 HC was further screened for microbicidal activity against a panel of microbial strains using the MMC99 assay, as described above, except using only two different assay media; 0.037% BHI and 50% h.i. SWF. The following microbial strains were tested for sensitivity: S. aureus (ATCC 12600), MRSA (ATCC 33591), Staphylococcus epidermidis (ATCC 12228), Streptococcus pyogenes (ATCC 12344), Propionibacterium acnes (ATCC 6919) Escherichia coli (ATCC 11775), P. aeruginosa (ATCC 15442), Klebsiella pneumoniae (Culture collection, University of Gothenburg (CCUG) 59413, clinical isolate resistant to penicillins, cephalosporins, aztreonam and carbapenems, with the reference strain ATCC 13883), Acinetobacter baumannii (CCUG 58437, clinical isolate resistant to tobramycin, trimsulfa, ciprofloxacin, cefotaxim, ceftazidim, meropenem, pipera/tazobactam, with the reference strain ATCC 19606) and the yeast strain Candida albicans (ATCC 64549). Mupirocin (GlaxoSmithKline) and fusidic acid (LEO Pharma) were used as comparative control antibiotics.

[2] = system: P. aeruginosa (ATCC 15442); test: Minimal microbicidal concentration (MMC99) assay; format: cell-based, Pseudomonas aeruginosa; details: for MMC99, P. aeruginosa ATCC 15442, 0.037% BHI / MMC99, P. aeruginosa ATCC 15442, 50% h.i. SWF: Table 3 panel
Protocol: as §1, §2

MRSA (ATCC 33591) [3] = test: Minimal microbicidal concentration (MMC99) assay; format: cell-based, methicillin-resistant S. aureus; details: Table 3 panel, up to 200 mg/L, duplicates, maximum of at least two independent experiments
Protocol: as §1
CEN1 HC was further screened for microbicidal activity against a panel of microbial strains using the MMC99 assay, as described above, except using only two different assay media; 0.037% BHI and 50% h.i. SWF. […]

[4] = system: Acinetobacter baumannii (CCUG 58437); test: Minimal microbicidal concentration (MMC99) assay; format: cell-based; details: Table 3 panel, multiresistant clinical isolate, up to 200 mg/L, duplicates, maximum of at least two independent experiments
Protocol: as §1, §2

[5] = system: Candida albicans (ATCC 64549); test: Minimal microbicidal concentration (MMC99) assay; format: cell-based; details: Table 3 panel, yeast, up to 200 mg/L, duplicates, maximum of at least two independent experiments
Protocol: as §1, §2

[6] = system: Escherichia coli (ATCC 11775); test: Minimal microbicidal concentration (MMC99) assay; format: cell-based; details: Table 3 panel, up to 200 mg/L, duplicates, maximum of at least two independent experiments
Protocol: as §1, §2

[7] = system: Klebsiella pneumoniae (CCUG 59413); test: Minimal microbicidal concentration (MMC99) assay; format: cell-based; details: Table 3 panel, multiresistant clinical isolate, up to 200 mg/L, duplicates, maximum of at least two independent experiments
Protocol: as §1, §2

[8] = system: Staphylococcus epidermidis (ATCC 12228); test: Minimal microbicidal concentration (MMC99) assay; format: cell-based; details: Table 3 panel, up to 200 mg/L, duplicates, maximum of at least two independent experiments
Protocol: as §1, §2

[9] = system: Streptococcus pyogenes (ATCC 12344); test: Minimal microbicidal concentration (MMC99) assay; format: cell-based; details: Table 3 panel, up to 200 mg/L, duplicates, maximum of at least two independent experiments
Protocol: as §1, §2

[10] = system: Propionibacterium acnes (ATCC 6919); test: Minimal microbicidal concentration (MMC99) assay; format: cell-based; details: Table 3 panel, up to 200 mg/L, duplicates, maximum of at least two independent experiments
Protocol: as §1, §2

S. aureus (ATCC 12600) [11] = test: In vitro multistep resistance assay (MMC99 after passages); format: cell-based, Staphylococcus aureus
Protocol: (§3) S. aureus (ATCC 12600) and MRSA (ATCC 33591) were cultured according to the protocol described above and diluted to 10^8 CFU/mL in 0.037% BHI as estimated by measuring OD600. The multistep resistance assay was performed as previously described (Kosowska-Shick et al. [2006]). Peptide dilutions were prepared in twofold dilution steps in the concentration range from 0.75 mg/L to 96 mg/L in a volume of 1 mL using 0.37% BHI medium. The same peptide concentration range was used during all passages and new peptide dilutions were prepared each day from stock solutions. Mupirocin (Applichem), the active substance in the conventional topical antibiotic Bactroban, was used as a comparator. The antibiotic control was handled in the same way as the peptides except that the concentration range of mupirocin was 0.003 mg/L to 3 mg/L.
(§4) An aliquot of 10 μL (10^8 CFU/mL) of the bacterial suspension was added to the peptide dilutions, to the positive antibiotic control, and to a negative control incubated without peptide, and the suspensions were incubated at 37°C for 24 h. Turbidity of the overnight cultures was determined by OD600 measurements. The OD600 of bacteria/peptide suspensions was calculated by subtracting the OD600 of the peptide mixed with medium from the OD600 measured on the overnight cultures. […]

MRSA (ATCC 33591) [12] = test: as above; format: cell-based, methicillin-resistant S. aureus
Protocol: as §3, §4

[13] = Table 2 screen, medium 0.037% BHI + 85 mM NaCl, 2 h at 37°C, up to 200 mg/L, duplicates, maximum of at least two independent experiments
[14] = Table 2 screen, medium 0.037% BHI + 150 mM NaCl, 2 h at 37°C, up to 200 mg/L, duplicates, maximum of at least two independent experiments
[15] = Table 3 panel, up to 200 mg/L, duplicates, maximum of at least two independent experiments
[16] = up to 200 mg/L, duplicates, maximum of at least two independent experiments
[17] = after 14 days of cultivation under selection pressure, 0.37% BHI, 24 h passages
[18] = multistep resistance assay, before passaging (day 0)

GW(Br)FKKTFHKVSHAVKSGIHA [CEN1 HC-Br (1–20), C-terminal truncated variant of CEN1 HC-Br]
S. aureus MMC99, 0.037% BHI + 85 mM NaCl (S. aureus (ATCC 12600) [1]; [13]): >200 mg/L | S. aureus MMC99, 0.037% BHI + 150 mM NaCl (S. aureus (ATCC 12600) [1]; [14]): >200 mg/L | S. aureus MMC99, 0.037% BHI (S. aureus (ATCC 12600) [1]; Table 2 screen, medium 0.037% BHI, ≥99% reduction of bacteria, 2 h at 37°C, tested up to 200 mg/L, duplicates, maximum value from at least two independent experiments): 12.5 mg/L | S. aureus MMC99, 0.037% BHI with 85 mM or 150 mM NaCl (S. aureus (ATCC 12600) [1]; text summary over both NaCl concentrations of Table 2a): ≥ 200 mg/L | P. aeruginosa MMC99, 0.037% BHI + 85 mM NaCl [2, 13]: 12.5 mg/L | P. aeruginosa MMC99, 0.037% BHI + 150 mM NaCl [2, 14]: 25 mg/L | P. aeruginosa MMC99, 0.037% BHI ([2]; Table 2 screen, medium 0.037% BHI, 2 h at 37°C, up to 200 mg/L, duplicates, maximum of at least two independent experiments): 12.5 mg/L | P. aeruginosa MMC99, 0.037% BHI with 85 mM or 150 mM NaCl ([2]; text summary over both NaCl concentrations of Table 2b, compared to 0.037% BHI only): 12.5 to 100.0 mg/L

CC(=O)O[C@H]1C[C@@]2(C)[C@@H](C[C@@H](O)[C@H]3[C@@]4(C)CC[C@@H](O)[C@@H](C)[C@@H]4CC[C@@]32C)/C1=C(\CCC=C(C)C)C(=O)O [fusidic acid]
MMC99, S. aureus ATCC 12600, 50% h.i. SWF (S. aureus (ATCC 12600) [1]; [15]): 6.3 mg/L | MMC99, P. aeruginosa ATCC 15442, 0.037% BHI [2, 16]: >200 mg/L | MMC99, P. aeruginosa ATCC 15442, 50% h.i. SWF [2, 16]: >200 mg/L | MMC99, MRSA ATCC 33591, 0.037% BHI (MRSA (ATCC 33591) [3]): 6.3 mg/L | MMC99, MRSA ATCC 33591, 50% h.i. SWF (MRSA (ATCC 33591) [3]): 6.3 mg/L | MMC99, A. baumannii CCUG 58437, 0.037% BHI [4]: >200 mg/L | MMC99, A. baumannii CCUG 58437, 50% h.i. SWF [4]: >200 mg/L | MMC99, C. albicans ATCC 64549, 0.037% BHI [5]: >200 mg/L | MMC99, C. albicans ATCC 64549, 50% h.i. SWF [5]: >200 mg/L | MMC99, E. coli ATCC 11775, 0.037% BHI [6]: >200 mg/L | MMC99, E. coli ATCC 11775, 50% h.i. SWF [6]: >200 mg/L | MMC99, K. pneumoniae CCUG 59413, 0.037% BHI [7]: >200 mg/L | MMC99, K. pneumoniae CCUG 59413, 50% h.i. SWF [7]: >200 mg/L | MMC99, S. epidermidis ATCC 12228, 0.037% BHI [8]: 6.3 mg/L | MMC99, S. epidermidis ATCC 12228, 50% h.i. SWF [8]: 6.3 mg/L | MMC99, S. pyogenes ATCC 12344, 0.037% BHI [9]: >200 mg/L | MMC99, S. pyogenes ATCC 12344, 50% h.i. SWF [9]: >200 mg/L

C/C(=C\C(=O)OCCCCCCCCC(=O)O)C[C@@H]1OC[C@H](C[C@@H]2O[C@H]2[C@@H](C)[C@H](C)O)[C@@H](O)[C@H]1O [mupirocin, Mupirocin]
MMC99, S. aureus ATCC 12600, 0.037% BHI (S. aureus (ATCC 12600) [1]; Table 3 panel, 0.037% BHI, up to 200 mg/L, duplicates, maximum of at least two independent experiments, comparators Bactroban 2% ointment, Fucidin 2% cream): 3.1 mg/L | MMC99, S. aureus ATCC 12600, 50% h.i. SWF (S. aureus (ATCC 12600) [1]; [15]): 3.1 mg/L | MMC99, P. aeruginosa ATCC 15442, 0.037% BHI [2, 16]: >200 mg/L | MMC99, P. aeruginosa ATCC 15442, 50% h.i. SWF [2, 16]: >200 mg/L | MMC99, MRSA ATCC 33591, 0.037% BHI (MRSA (ATCC 33591) [3]): 3.1 mg/L | MMC99, MRSA ATCC 33591, 50% h.i. SWF (MRSA (ATCC 33591) [3]): 3.1 mg/L | MMC99, A. baumannii CCUG 58437, 0.037% BHI [4]: >200 mg/L | MMC99, A. baumannii CCUG 58437, 50% h.i. SWF [4]: >200 mg/L | MMC99, C. albicans ATCC 64549, 0.037% BHI [5]: >200 mg/L | MMC99, C. albicans ATCC 64549, 50% h.i. SWF [5]: >200 mg/L | MMC99, E. coli ATCC 11775, 0.037% BHI [6]: >200 mg/L | MMC99, E. coli ATCC 11775, 50% h.i. SWF [6]: >200 mg/L | MMC99, K. pneumoniae CCUG 59413, 0.037% BHI [7]: >200 mg/L | MMC99, K. pneumoniae CCUG 59413, 50% h.i. SWF [7]: >200 mg/L | MMC99, P. acnes ATCC 6919, 0.037% BHI ([10]; 0.037% BHI): >200 mg/L | MMC99, P. acnes ATCC 6919, 50% h.i. SWF ([10]; 50% h.i. SWF): >200 mg/L | MMC99, S. epidermidis ATCC 12228, 0.037% BHI [8]: 3.1 mg/L | MMC99, S. epidermidis ATCC 12228, 50% h.i. SWF [8]: 3.1 mg/L | MMC99, S. pyogenes ATCC 12344, 0.037% BHI [9]: 6.3 mg/L | MMC99, S. pyogenes ATCC 12344, 50% h.i. SWF [9]: 3.1 mg/L | Concentration killing ≥99% of the bacteria (MMC99), day 14 (S. aureus (ATCC 12600) [11]; [17]): 24 mg/L | Concentration killing ≥99% of the bacteria (MMC99), day 0 (S. aureus (ATCC 12600) [11]; [18]): 3 mg/L | Concentration killing ≥99% of the bacteria (MMC99), day 14 (MRSA (ATCC 33591) [12]; [17]): > 384 mg/L | Concentration killing ≥99% of the bacteria (MMC99), day 0 (MRSA (ATCC 33591) [12]; [18]): 3 mg/L

Reference: PMC3561256, “Anti-infectious and anti-inflammatory effects of peptide fragments sequentially derived from the antimicrobial peptide centrocin 1 isolated from the green sea urchin, Strongylocentrotus droebachiensis” (AMB Express, 2012)
